Data set [1] addresses T1, CRAC channel (endogenous SOC in HEK293 cells) (Homo sapiens, UniProt Q96D31).
T1 construct: endogenous in cells; host or cells: HEK293 (ECACC)
Kind of data set: HEK Calcium Influx Assay (FLIPR). The class given is cell-based. The method in brief: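 Endogenous SOC in HEK293 cells, Calcium-4 dye-loaded; stores depleted with 2 μM thapsigargin in Ca2+-free HBS (100 μM EGTA, pH 7.4) 10 min, then 3 mM CaCl2 added. Compound given after 15 min; signal averaged 9.5–10 min post-addition versus DMSO and non-TG controls. IC50 from 8-point 1:3.16 series starting 10 μM.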

The subject of data set [2] is Interleukin-2 (IL-2) production/release in Jurkat T cell line. Kind of data set: Jurkat IL-2 Production Assay. The class given is cell-based. Conditions: Homo sapiens; Jurkat T cells, PHA stimulation 22 hours. The method in brief: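 Jurkat E6-1 cells (5*10^5/well) preincubated 30 min with compound, then stimulated with 15 μg/ml PHA for 22 h at 37 °C. IC50 from 8-point 1:3.16 dilutions starting at 10 μM.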

Data set [3] in a line: Nephelometric Solubility Measurement. Type of data set: physicochemical. As to conditions: aqueous buffer, kinetic from dmso stock; phosphate buffered saline pH 7.4, 37° C., incubation 2 minutes. On the procedure:
Nephelometric Solubility Measurement
BMG Labtech Nephelostar (S/N 504-0167), 37° C.; Gain: 100; Laser Beam Focus 1.5 mm; Laser intensity 80%; measurement time/well 0.1 s; positioning delay 0.1 s; data analysis: BMG Labtech MARS software
Measurements with BMG Labtech Nephelostar performed though addition of DMSO stock solutions of compound (2, 5, 10, 20, 30, 40, 50, 60, 80, 100 [μg/mL]) into phosphate buffered saline (pH 7.4, purchased from Invitrogen, catalogue number 10010-056); incubation time: 2 minutes [blank measurement contains DMSO (2.5 μL) and buffered saline (47.5 μL)]; Detection of insoluble particles in liquid samples was performed by measuring forward scattered light.

Setting [4] is: thapsigargin store depletion, read-out: % inhib. [@ 10 μM] FLIPR.

≈ marks a conversion by molar mass, not a printed value. Where two headings read alike, the source gives them in different places. A value given as a limit tells only on which side of the number the result lay.

T1 sequence (Q96D31 whole entry): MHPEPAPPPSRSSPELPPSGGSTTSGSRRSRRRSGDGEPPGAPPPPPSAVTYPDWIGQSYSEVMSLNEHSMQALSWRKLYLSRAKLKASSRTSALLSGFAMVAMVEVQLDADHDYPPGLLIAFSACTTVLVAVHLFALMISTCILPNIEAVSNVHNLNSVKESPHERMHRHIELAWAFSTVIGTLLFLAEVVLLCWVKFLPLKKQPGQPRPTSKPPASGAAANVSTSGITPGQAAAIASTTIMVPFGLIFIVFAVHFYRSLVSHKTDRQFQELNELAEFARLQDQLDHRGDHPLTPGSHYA

One may read the IC50 as the concentration needed to halve the response being measured. Usually solubility stands for how much of the substance goes into solution per volume. Read a high solubility as much dissolved substance. As for `CCOc1cc(C)c(-c2cc(C(=O)Nc3c(F)cccc3F)nn2C)cn1` [Example 3, N-(2,6-Difluoro-phenyl)-5-(6-ethoxy-4-methyl-pyridin-3-yl)-1-methyl-1H-pyrazole-3-carboxylic acid amide], the inhibition at 10 µM was 75% in data set [1] (numeric values of Table 2, read-out: inhib. [@ 10 μM] FLIPR) and more than 70% in data set [1] (setting [4]). For the same compound, the IC50 in data set [2] was less than 0.5 µM. For the same compound, the solubility at 2 min in data set [3] worked out at 149 µM (≈ 55.6 µg/mL).

Compound `COc1ncc(-c2nn(C)c(=O)o2)cc1-c1ccc(NC(=O)c2c(F)cccc2F)cc1` [Comparative example #5, reference compound] registered a solubility at 2 min in data set [3] of less than 11 µM.

On to `CCOc1cc(C)c(-c2ccc(NC(=O)c3c(F)cccc3F)cc2)cn1` [Comparative example #3, reference compound], for which the solubility at 2 min in data set [3] is less than 14 µM.

Consider `COc1ncc(-c2nn(C)c(=O)o2)cc1-c1cc(C(=O)Nc2c(F)cccc2F)nn1C` [Example 74, N-(2,6-Difluoro-phenyl)-5-[2-methoxy-5-(4-methyl-5-oxo-4H-[1,3,4]oxadiazol-2-yl)-pyridin-3-yl]-1-methyl-1H-pyrazole-3-carboxylic acid amide], for which the inhibition at 10 µM in data set [1] (setting [4]) was less than 50%. In data set [2], the IC50 was 1 to 5 µM. Besides, the solubility at 2 min in data set [3] came to 131 µM (≈ 57.8 µg/mL).

In turn, `COc1cc(OC)c(-c2ccc(NC(=O)c3c(F)cccc3F)cc2)cn1` [Comparative example #4, reference compound] yielded a solubility at 2 min in data set [3] of 38.8 µM (≈ 14.4 µg/mL). This lies in the double-digit micromolar range.

As for `COc1cc(OC)c(-c2cc(C(=O)Nc3c(F)cccc3F)nn2C)cn1` [Example 38, N-(2,6-Difluoro-phenyl)-5-(4,6-dimethoxy-pyridin-3-yl)-1-methyl-1H-pyrazole-3-carboxylic acid amide], in data set [1] (setting [4]), the inhibition at 10 µM is more than 70%. The IC50 in data set [2] is less than 0.5 µM. The solubility at 2 min in data set [3] was more than 267 µM.

The record behind these values is patent publication US20150166505A1, “PYRIDINYL-SUBSTITUTED PYRAZOLYL CARBOXAMIDES” (GRÜNENTHAL GMBH, priority 2013, published 2015).
